This experiment addresses Human Factor D (Homo sapiens (Human), UniProt P00746). As to the kind of experiment: Human Factor D Assay. It counts as biochemical. The conditions noted are these: Table 6; Factor D 80 nM, substrate Z-L-Lys-SBz; read-out: IC50. As to the method: The assay of Example 10 was used to determine the IC50's of the compounds. Other standard factor D inhibition assays are also available.
Human Factor D (purified from human serum, Complement Technology, Inc.) at 80 nM final concentration is incubated with test compound at various concentrations for 5 min at room temperature in 50 mM Tris, 1M NaCl, pH 7.5. A synthetic substrate Z-L-Lys-SBz and DTNB (Ellman's reagent) are added to final concentrations of 100 μM each. Absorbance at 405 nm (A405) is recorded at 30 second intervals for 30 min using a microplate spectrophotometer. IC50 values are calculated by nonlinear regression of complement Factor D reaction rates as a function of test compound concentration.
Sequence of Human Factor D (P00746 26-253): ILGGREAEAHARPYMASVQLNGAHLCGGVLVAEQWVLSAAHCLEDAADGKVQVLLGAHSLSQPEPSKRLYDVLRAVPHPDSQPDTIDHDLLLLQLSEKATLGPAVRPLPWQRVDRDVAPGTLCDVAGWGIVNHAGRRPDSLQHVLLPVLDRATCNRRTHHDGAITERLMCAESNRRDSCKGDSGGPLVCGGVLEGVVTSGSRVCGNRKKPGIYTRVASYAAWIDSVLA
In general, IC50 refers to the concentration that inhibits the measured activity by half. With `CC(=O)c1nn(CC(=O)N2C3CC3(CN)C[C@H]2C(=O)Nc2nc(Br)ccc2C)c2ccc(-c3cnc(C)nc3)cc12` (stereo partly drawn) [Compound 26, (3S)-2-(2-(3-Acetyl-5-(2-methylpyrimidin-5-yl)-1H-indazol-1-yl)acetyl)-5-(aminomethyl)-N-(6-bromo-3-methylpyridin-2-yl)-2-azabicyclo[3.1.0]hexane-3-carboxamide], the 50% inhibitory concentration (IC50) was in the range of 1000 to 10000 nM.

For `CC(=O)c1nn(CC(=O)N2[C@H](C(=O)Nc3nc(Br)c(F)cc3C)C[C@@]3(C)C[C@@H]23)c2c(C)cc(-c3cnc(C)nc3)cc12` [Compound 27, (1R,3S,5R)-2-(2-(3-acetyl-7-methyl-5-(2-methylpyrimidin-5-yl)-1H-indazol-1-yl)acetyl)-N-(6-bromo-5-fluoro-3-methylpyridin-2-yl)-5-methyl-2-azabicyclo[3.1.0]hexane-3-carboxamide], the IC50 is < 1000 nM.

`C=CCOCc1ccc(Br)nc1NC(=O)[C@@H]1C[C@]2(COCC=C)C[C@@H]2N1C(=O)Cn1nc(C(C)=O)c2cc(-c3cnc(C)nc3)ccc21` [Compound 29, (1S,3S,5R)-2-(2-(3-Acetyl-5-(2-methylpyrimidin-5-yl)-1H-indazol-1-yl)acetyl)-5-((allyloxy)methyl)-N-(3-((allyloxy)methyl)-6-bromopyridin-2-yl)-2-azabicyclo[3.1.0]hexane-3-carboxamide]: the 50% inhibitory concentration (IC50) is < 1000 nM.

As for `CC(=O)c1nn(CC(=O)N2[C@H](C(=O)Nc3nc(Br)ccc3C)C[C@@]3(C)C[C@@H]23)c2c(CF)cc(-c3cnc(C)nc3)cc12` [Compound 31, (1R,3S,5R)-2-(2-(3-Acetyl-7-(fluoromethyl)-5-(2-methylpyrimidin-5-yl)-1H-indazol-1-yl)acetyl)-N-(6-bromo-3-methylpyridin-2-yl)-5-methyl-2-azabicyclo[3.1.0]hexane-3-carboxamide], the IC50 was < 1000 nM.

Take `COCc1cc(-c2cnc(C)nc2)cc2c(C(C)=O)nn(CC(=O)N3C4CC4(COC)C[C@H]3C(=O)Nc3cccc(Br)n3)c12` (stereo partly drawn) [Compound 32, (3S)-2-(2-(3-Acetyl-7-(methoxymethyl)-5-(2-methylpyrimidin-5-yl)-1H-indazol-1-yl)acetyl)-N-(6-bromopyridin-2-yl)-5-(methoxymethyl)-2-azabicyclo[3.1.0]hexane-3-carboxamide]: the IC50 was < 1000 nM.

As to `CC(=O)c1nn(CC(=O)N2[C@H](C(=O)Nc3cccc(OC(F)(F)F)c3F)C[C@@]3(C)C[C@@H]23)c2c(C)cc(-c3cnc(C)nc3)cc12` [Compound 33, (1R,3S,5R)-2-(2-(3-Acetyl-7-methyl-5-(2-methylpyrimidin-5-yl)-1H-indazol-1-yl)acetyl)-N-(2-fluoro-3-(trifluoromethoxy)phenyl)-5-methyl-2-azabicyclo[3.1.0]hexane-3-carboxamide], the IC50 was < 1000 nM.

`CC(=O)c1nn(CC(=O)N2[C@H](C(=O)N[C@@H](C)C(F)=C(C)C)C[C@@]3(C)C[C@@H]23)c2c(C)cc(-c3cnc(C)nc3)cc12` [Compound 34, (1R,3S,5R)-2-(2-(3-Acetyl-7-methyl-5-(2-methylpyrimidin-5-yl)-1H-indazol-1-yl)acetyl)-N—((S)-3-fluoro-4-methylpent-3-en-2-yl)-5-methyl-2-azabicyclo[3.1.0]hexane-3-carboxamide]: the IC50 was < 1000 nM.

`CC(=O)c1nn(CC(=O)N2[C@H](C(=O)Nc3ccn(CC(F)(F)F)n3)C[C@@]3(C)C[C@@H]23)c2c(C)cc(-c3cnc(C)nc3)cc12` [Compound 35, (1R,3S,5R)-2-(2-(3-Acetyl-7-methyl-5-(2-methylpyrimidin-5-yl)-1H-indazol-1-yl)acetyl)-5-methyl-N-(1-(2,2,2-trifluoroethyl)-1H-pyrazol-3-yl)-2-azabicyclo[3.1.0]hexane-3-carboxamide]: the IC50 was < 1000 nM.

Turning to `CC(=O)c1nn(CC(=O)N2[C@H](C(=O)Nc3cccc(C(F)(F)F)n3)C[C@@]3(C)C[C@@H]23)c2c(C)cc(-c3cnc(C)nc3)cc12` [Compound 36, (1R,3S,5R)-2-(2-(3-Acetyl-7-methyl-5-(2-methylpyrimidin-5-yl)-1H-indazol-1-yl)acetyl)-5-methyl-N-(6-(trifluoromethyl)pyridin-2-yl)-2-azabicyclo[3.1.0]hexane-3-carboxamide], the IC50 is < 1000 nM.

On to `CC(=O)c1nn(CC(=O)N2[C@H](C(=O)Nc3cccc(OC(F)(F)F)n3)C[C@@]3(C)C[C@@H]23)c2c(C)cc(-c3cnc(C)nc3)cc12` [Compound 37, (1R,3S,5R)-2-(2-(3-Acetyl-7-methyl-5-(2-methylpyrimidin-5-yl)-1H-indazol-1-yl)acetyl)-5-methyl-N-(6-(trifluoromethoxy)pyridin-2-yl)-2-azabicyclo[3.1.0]hexane-3-carboxamide], for which the IC50 was < 1000 nM.

`CC(=O)c1nn(CC(=O)N2[C@H](C(=O)O)C[C@@]3(C)C[C@@H]23)c2ccc(-c3cnc(C)nc3)cc12` [Compound 40, (1R,3S,5R)-2-(2-(3-acetyl-5-(2-methylpyrimidin-5-yl)-1H-indazol-1-yl)acetyl)-5-methyl-2-azabicyclo[3.1.0]hexane-3-carboxylic acid]: the IC50 was > 10000 nM.

In the case of `CC(=O)c1nn(CC(=O)N2C[C@H](F)C[C@H]2C(=O)Nc2cccc(Br)n2)c2c(C(=O)O)cc(-c3cnc(C)nc3)cc12` [Compound 41, 3-acetyl-1-(2-((2S,4R)-2-((6-bromopyridin-2-yl)carbamoyl)-4-fluoropyrrolidin-1-yl)-2-oxoethyl)-5-(2-methylpyrimidin-5-yl)-1H-indazole-7-carboxylic acid], the IC50 was < 1000 nM.

As for `CNCC12CC1N(C(=O)Cn1nc(C(C)=O)c3cc(-c4cnc(C)nc4)ccc31)[C@H](C(=O)Nc1nc(Br)ccc1C)C2` (stereo partly drawn) [Compound 42, (3S)-2-(2-(3-acetyl-5-(2-methylpyrimidin-5-yl)-1H-indazol-1-yl)acetyl)-N-(6-bromo-3-methylpyridin-2-yl)-5-((methylamino)methyl)-2-azabicyclo[3.1.0]hexane-3-carboxamide], the half-inhibitory concentration (IC50) was < 1000 nM.

Consider `CC(=O)NC[C@@]12C[C@@H]1N(C(=O)Cn1nc(C(C)=O)c3cc(-c4cnc(C)nc4)ccc31)[C@H](C(=O)Nc1cccc(Br)n1)C2` [Compound 43, (1S,3S,5S)-5-(Acetamidomethyl)-2-(2-(3-acetyl-5-(2-methylpyrimidin-5-yl)-1H-indazol-1-yl)acetyl)-N-(6-bromopyridin-2-yl)-2-azabicyclo[3.1.0]hexane-3-carboxamide], for which the IC50 was 1000 to 10000 nM.

As for `CC(=O)NC[C@@]12C[C@@H](C(=O)Nc3cccc(Br)n3)N(C(=O)Cn3nc(C(C)=O)c4cc(-c5cnc(C)nc5)ccc43)[C@@H]1C2` [Compound 44, (1R,3S,5R)-5-(Acetamidomethyl)-2-(2-(3-acetyl-5-(2-methylpyrimidin-5-yl)-1H-indazol-1-yl)acetyl)-N-(6-bromopyridin-2-yl)-2-azabicyclo[3.1.0]hexane-3-carboxamide], the IC50 is < 1000 nM.

Take `COC(=O)N[C@H](C(=O)NCC12CC1N(C(=O)Cn1nc(C(C)=O)c3cc(-c4cnc(C)nc4)ccc31)[C@H](C(=O)Nc1cccc(Br)n1)C2)C(C)C` (stereo partly drawn) [Compound 45, Methyl (2S)-1-(((3S)-2-(2-(3-acetyl-5-(2-methylpyrimidin-5-yl)-1H-indazol-1-yl)acetyl)-3-(6-bromopyridin-2-ylcarbamoyl)-2-azabicyclo[3.1.0]hexan-5-yl)methylamino)-3-methyl-1-oxobutan-2-ylcarbamate]: the IC50 was < 1000 nM.
